Experimental data as given in PubChem BioAssay (NCI).
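Tested at 5 concentrations; 48 h exposure; 96-well plates; endpoints linearly interpolated, else capped at highest concentration. TGI: concentration producing complete growth inhibition.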

What was measured:
Test in all cases: growth of human tumour cells (NCI), 48 h
[1] = tested on: DMS 273 small cell lung
[2] = tested on: HOP-62 NSCLC
[3] = tested on: UO-31 renal
[4] = tested on: RXF 393 renal
[5] = tested on: UACC-62 melanoma
[6] = tested on: MOLT-4 leukemia
[7] = tested on: CCRF-CEM leukemia
[8] = tested on: U251 CNS
[9] = tested on: HCT-15 colon
[10] = tested on: OVCAR-4 ovarian
[11] = tested on: UACC-257 melanoma
[12] = tested on: OVCAR-3 ovarian
[13] = tested on: NCI-H522 lung
[14] = tested on: OVCAR-5 ovarian
[15] = tested on: HOP-18 NSCLC
[16] = tested on: M14 melanoma
[17] = tested on: DLD-1 colon
[18] = tested on: EKVX NSCLC
[19] = tested on: MALME-3M melanoma
[20] = tested on: SF-268 CNS
[21] = tested on: 786-0 renal
[22] = tested on: RPMI-8226 leukemia
[23] = tested on: SK-MEL-5 melanoma
[24] = tested on: SNB-75 CNS
[25] = tested on: SK-OV-3 ovarian
[26] = tested on: SNB-78 CNS
[27] = tested on: KM20L2 colon
[28] = tested on: SN12C renal
[29] = tested on: A549 NSCLC
[30] = tested on: SNB-19 CNS
[31] = tested on: ACHN renal
[32] = tested on: SK-MEL-28 melanoma
[33] = tested on: SW-620 colon
[34] = tested on: SK-MEL-2 melanoma
[35] = tested on: HCC-2998 colon
[36] = tested on: HOP-92 NSCLC
[37] = tested on: OVCAR-8 ovarian
[38] = tested on: SF-295 CNS
[39] = tested on: HT29 colon
[40] = tested on: K-562 leukemia
[41] = tested on: TK-10 renal
[42] = tested on: NCI-H23 lung
[43] = tested on: NCI-H226 lung
[44] = tested on: DMS 114 small cell lung
[45] = tested on: LOX IMVI melanoma
[46] = tested on: SR leukemia
[47] = tested on: KM12 colon
[48] = tested on: XF 498 CNS
[49] = tested on: HCT-116 colon
[50] = tested on: COLO 205 colon
[51] = tested on: NCI-H460 lung
[52] = tested on: CAKI-1 renal
[53] = tested on: SF-539 CNS
[54] = tested on: LXFL 529 NSCLC
[55] = tested on: IGROV1 ovarian
[56] = tested on: M19-MEL melanoma
[57] = tested on: HL-60(TB) leukemia
[58] = tested on: A498 renal

With `CC1(C)OC(=O)C(c2cccs2)C(=O)O1` the TGI [1] was > 100 µM, the TGI [2] was > 100 µM and the TGI [3] was > 100 µM. The TGI [4] was > 100 µM, the TGI [5] was > 100 µM and the TGI [6] was > 100 µM. The TGI [7] was > 100 µM, the TGI [8] was > 100 µM and the TGI [9] was > 100 µM. For the same molecule, the TGI [10] was > 100 µM, the TGI [11] was > 100 µM and the TGI [12] was > 100 µM. For the same molecule, the TGI [13] was > 100 µM, the TGI [14] was > 100 µM and the TGI [15] was > 100 µM. For the same molecule, the TGI [16] was > 100 µM, the TGI [17] was > 100 µM and the TGI [18] was > 100 µM. For the same molecule, the TGI [19] was > 100 µM, the TGI [20] was > 100 µM and the TGI [21] was > 100 µM. The TGI [22] was > 100 µM, the TGI [23] was > 100 µM and the TGI [24] was > 100 µM. For the same molecule, the TGI [25] was > 100 µM, the TGI [26] was > 100 µM and the TGI [27] was > 100 µM. For the same molecule, the TGI [28] was > 100 µM, the TGI [29] was > 100 µM and the TGI [30] was > 100 µM. The TGI [31] was > 100 µM, the TGI [32] was > 100 µM and the TGI [33] was > 100 µM. For the same molecule, the TGI [34] was > 100 µM, the TGI [35] was > 100 µM and the TGI [36] was > 100 µM. The TGI [37] was > 100 µM, the TGI [38] was > 100 µM and the TGI [39] was > 100 µM. For the same molecule, the TGI [40] was > 100 µM, the TGI [41] was > 100 µM and the TGI [42] was > 100 µM. For the same molecule, the TGI [43] was > 100 µM, the TGI [44] was > 100 µM and the TGI [45] was > 100 µM. For the same molecule, the TGI [46] was > 100 µM, the TGI [47] was > 100 µM and the TGI [48] was > 100 µM. For the same molecule, the TGI [49] was > 100 µM, the TGI [50] was > 100 µM and the TGI [51] was > 100 µM. For the same molecule, the TGI [52] was > 100 µM, the TGI [53] was > 100 µM and the TGI [54] was > 100 µM.

With `O=C1C(Cl)C(c2cc(Br)cc(Br)c2O)N1n1cnc2ccccc2c1=O` (stereo not given) the TGI [1] was > 100 µM, the TGI [2] was > 100 µM and the TGI [3] was 76.1 µM. It also gave a TGI [4] of 63.7 µM, a TGI [5] of 49.3 µM and a TGI [6] of 30.1 µM. The TGI [7] was 49.5 µM, the TGI [8] was 31.8 µM and the TGI [9] was > 100 µM. It also gave a TGI [10] of 43.1 µM, a TGI [55] of 70.7 µM and a TGI [11] of 45.3 µM. The TGI [12] was 79.4 µM, the TGI [13] was 49.1 µM and the TGI [14] was 71.8 µM. The TGI [15] was 83.8 µM, the TGI [16] was 42.2 µM and the TGI [17] was > 100 µM. For the same molecule, the TGI [18] was 85.9 µM, the TGI [19] was 62.9 µM and the TGI [20] was > 100 µM. For the same molecule, the TGI [21] was > 100 µM, the TGI [22] was 37.4 µM and the TGI [23] was 35.6 µM. For the same molecule, the TGI [24] was 85.6 µM, the TGI [56] was 62.2 µM and the TGI [25] was 42.3 µM. For the same molecule, the TGI [26] was > 100 µM, the TGI [27] was > 100 µM and the TGI [28] was 91.2 µM. For the same molecule, the TGI [29] was > 100 µM, the TGI [30] was 89.3 µM and the TGI [31] was > 100 µM. The TGI [32] was 70.5 µM, the TGI [33] was > 100 µM and the TGI [34] was 46.7 µM. For the same molecule, the TGI [35] was > 100 µM, the TGI [57] was 48 µM and the TGI [37] was 94.9 µM. For the same molecule, the TGI [38] was 54.2 µM, the TGI [39] was > 100 µM and the TGI [40] was 71.5 µM. For the same molecule, the TGI [41] was > 100 µM, the TGI [42] was 86.3 µM and the TGI [43] was 61.8 µM. The TGI [45] was 30.4 µM, the TGI [46] was 35.1 µM and the TGI [47] was 92.5 µM. For the same molecule, the TGI [48] was 61.2 µM, the TGI [49] was 36.2 µM and the TGI [50] was 93.2 µM. The TGI [51] was > 100 µM, the TGI [52] was 88.3 µM and the TGI [54] was > 100 µM.

For `O=C1c2ccccc2-c2ccccc2C(=O)C1(Br)Br`, the TGI [1] was 29.8 µM, the TGI [2] was 32.2 µM and the TGI [3] was 27.5 µM. The TGI [4] was 10.9 µM, the TGI [5] was 19.6 µM and the TGI [6] was 7.53 µM. The TGI [7] was 9.26 µM, the TGI [8] was 29.4 µM and the TGI [9] was 25 µM. It also gave a TGI [10] of 26.7 µM, a TGI [55] of 27.2 µM and a TGI [11] of 22.8 µM. The TGI [12] was 27.4 µM, the TGI [13] was 4.92 µM and the TGI [14] was 32 µM. It also gave a TGI [15] of 26.2 µM, a TGI [16] of 17.9 µM and a TGI [17] of 20.3 µM. It also gave a TGI [18] of 27.7 µM, a TGI [19] of 13.6 µM and a TGI [20] of 28.5 µM. It also gave a TGI [21] of 25.7 µM, a TGI [22] of 4.65 µM and a TGI [23] of 31.1 µM. The TGI [24] was 17.6 µM, the TGI [56] was 22.3 µM and the TGI [25] was 33.7 µM. For the same molecule, the TGI [26] was 23.4 µM, the TGI [27] was 31.8 µM and the TGI [28] was 24.2 µM. The TGI [29] was 34.6 µM, the TGI [30] was 31.6 µM and the TGI [31] was 24.6 µM. The TGI [32] was 20.8 µM, the TGI [33] was 13 µM and the TGI [34] was 23.6 µM. The TGI [35] was 32.2 µM, the TGI [36] was 9.59 µM and the TGI [57] was 6.47 µM. The TGI [37] was 23.9 µM, the TGI [38] was 29.6 µM and the TGI [58] was 30.2 µM. It also gave a TGI [39] of 32.7 µM, a TGI [40] of 28.3 µM and a TGI [41] of 24.6 µM. For the same molecule, the TGI [42] was 26.4 µM, the TGI [43] was 31.7 µM and the TGI [44] was 28.5 µM. For the same molecule, the TGI [45] was 22.2 µM, the TGI [46] was 4.95 µM and the TGI [47] was 31.5 µM. The TGI [49] was 21.9 µM, the TGI [50] was 20.7 µM and the TGI [51] was 35 µM. For the same molecule, the TGI [52] was 16.7 µM, the TGI [53] was 23.7 µM and the TGI [54] was 21.1 µM.
